In patent publication US20250189532A1, “1,6-DIYNE COMPOUND, ITS PREPARATION METHOD, AND PRODUCTS OBTAINED USING 1,6-DIYNE COMPOUND AS RAW MATERIAL AND THEIR APPLICATIONS” (Fujian Institute of Research on the Structure of Matter, …, priority 2022, published 2025):

Assays:
Assay type in all cases: cell-based
respiratory chain [1] = assay: Cell silencing experiment 1: cytc-290 siRNA, live cell imaging with MP-1
Description: Cells are cultured in imaging culture dishes for 6 h and then treated with cytc-290 (designed silent siRNA) or nontargeting RNA. After a certain period of action, live cell imaging is performed under a confocal laser scanning microscope. After 12 hours of ctyc-290 treatment, Hoechst 33342 and MTG staining are good, but about 10% of the cells could not be labeled by MP-1. About 30% of the cells could not be labeled by MP-1 after 18 hours of treatment with ctyc-290. As shown in FIGS. 8A-8E, in contrast, the staining effect of MP-1 in the control group using non-targeted RNA is still good.

respiratory chain [2] = assay: Cell silencing experiment 2: cytc-436 siRNA, live cell imaging with MP-1
Description: The cells are cultured in the imaging culture dish for 6 h, and then treated with cytc-436 (designed silent siRNA) or non-targeting RNA for a certain period of time, and then live cell imaging is performed under a confocal laser scanning microscope. After 6 hours of ctyc-436 treatment, Hoechst 33342 and MTG staining are good, but about 5% of the cells could not be labeled by MP-1. In contrast, the staining effect of MP-1 in the control group using non-targeting RNA is still good.

[3] = system: L929 cells (mouse fibroblasts); assay: Fluorescent labeling of L292/L929 cells by IM probes (confocal imaging); conditions: 30 minutes in the dark
Description: Cell line: L929 cells (mouse fibroblasts).
Cell culture: Cells are cultured in a CO2 incubator (37° C., 5% CO2) with DMEM medium (penicillin (100 U/mL) and streptomycin (100 μg/mL)).
(§1) Cell imaging experiment: Cells are cultured on 15 mm grade bottom cell culture dishes. Before labeling the cells with the probe, the culture medium is removed, and the cells are washed twice with Hank's buffer solution to remove the remaining culture medium. Then, 200 μL of probe IM-1 (10 μM) is added to the culture dish, and the cells are incubated in the dark for 30 minutes. The cells are washed twice with Hank's buffer solution to remove any remaining probe, and then 1 mL of Hank's solution is added to the culture dish. The cells are observed under a laser confocal microscope with a 100× objective. The excitation wavelength is 543 nm, and the emission wavelength is 550-600 nm.
as §1, with “IM-2 (5” for “IM-1 (10”
as §1, with “IM-3 (2” for “IM-1 (10”, “The cells are observed under a laser confocal microscope with a 100× objective. The excitation wavelength is 543 nm, and the emission wavelength is 550-600 nm.” left out

[4] = after 12 hours of cytc-290 treatment
[5] = after 6 hours of cytc-436 treatment

## CCOc1ccc(-c2nc3ccc(-c4nc5ccc(N6CCN(C)CC6)cc5[nH]4)cc3[nH]2)cc1 [Hoechst 33342, reference compound]
Respiratory chain [1]; [4]
  staining: good
Respiratory chain [2]; [5]
  staining: good

## c1ccc(C2=NCc3cc4ccccc4cc32)cc1 [IM-1]
[3]; probe 10 μM, excitation 543 nm, emission 550-600 nm
  organelles fluorescently labelled by the probe: labels the lysosomes and lysosomal autolysosomes in the cells

## CCCCCCCCCCCCCOc1ccc(C2=NCc3c2cc2ccc(Cl)cc2c3-c2ccccc2)cc1 [IM-2]
[3]; probe 5 μM, excitation 543 nm, emission 550-600 nm
  organelles fluorescently labelled by the probe: labels the lysosomes and lysosomal autolysosomes in the cells

## CCCCCCCCCCCCCOc1ccc(C2=NCc3c2cc2ccc(Cl)cc2c3-c2ccccc2)cc1 [IM-3]
[3]; probe 2 μM, excitation 488 nm, emission 600-650 nm
  organelles fluorescently labelled by the probe: labels the lysosomes and lysosomal autolysosomes in the cells

## C#CCN(C(C#Cc1ccccc1)c1ccccc1)S(=O)(=O)c1ccccc1 (stereo not shown) [PA-1]
Respiratory chain [1]; [4]
  cells that could not be labeled by MP-1: about 10%
Respiratory chain [1]; after 18 hours of cytc-290 treatment
  cells that could not be labeled by MP-1: About 30%
Respiratory chain [1]; control group using non-targeted RNA
  staining effect in control group: still good
Respiratory chain [2]; [5]
  cells that could not be labeled by MP-1: about 5%
Respiratory chain [2]; control group using non-targeting RNA
  staining effect in control group: still good
